For series [1], the target named is T1, AvBPPS (AvTPS3) (Wurfbainia villosa, UniProt A0A2Z4K4Q8).
T1 construct: gene TPS3; predicted 25-residue N-terminal transit peptide removed (full ORF 596 aa); E. coli Rosetta (DE3); Ni column
T1 sequence (A0A2Z4K4Q8 26-596): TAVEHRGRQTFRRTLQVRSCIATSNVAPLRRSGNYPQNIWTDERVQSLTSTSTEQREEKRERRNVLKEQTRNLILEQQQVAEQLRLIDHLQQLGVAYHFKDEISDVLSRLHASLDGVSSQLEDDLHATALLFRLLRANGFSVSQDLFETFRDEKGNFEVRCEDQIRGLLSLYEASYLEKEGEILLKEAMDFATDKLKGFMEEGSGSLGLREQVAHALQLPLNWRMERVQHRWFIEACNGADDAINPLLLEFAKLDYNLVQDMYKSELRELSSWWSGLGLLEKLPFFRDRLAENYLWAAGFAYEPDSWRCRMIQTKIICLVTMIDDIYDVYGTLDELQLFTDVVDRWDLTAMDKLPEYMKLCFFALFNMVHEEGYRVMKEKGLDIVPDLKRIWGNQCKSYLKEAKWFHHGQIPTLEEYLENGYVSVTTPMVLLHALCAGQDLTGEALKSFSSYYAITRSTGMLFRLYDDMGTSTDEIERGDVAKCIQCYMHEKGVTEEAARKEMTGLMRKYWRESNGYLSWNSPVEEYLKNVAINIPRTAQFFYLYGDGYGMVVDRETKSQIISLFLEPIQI
Description: GC-MS of borneol after alkaline phosphatase dephosphorylation. It counts as biochemical. The note with it: from GPP; 25 mM HEPES pH 7.0, 5 mM MgCl2, 5 mM DTT, 30 °C, 1 h, then alkaline phosphatase 37 °C.

Series [2] addresses T1, AvBPPS (AvTPS3). As to the kind of experiment: GC-MS product analysis. The format is biochemical. The note with it: 25 mM HEPES pH 7.0, 5 mM MgCl2, 5 mM DTT, 30 °C, 2 h.
Substrate in series [3]: CC(C)=CCC/C(C)=C/COP(=O)(O)OP(=O)(O)O
As to the kind of experiment: GC-MS product assay, kinetic analysis. The format is biochemical, Wurfbainia villosa. As to conditions: Mg2+ present.

Regarding `CC1(C)C2CCC1(C)C(OP(=O)(O)OP(=O)(O)O)C2` (stereo not drawn) [bornyl diphosphate], at AvBPPS (AvTPS3) [1], the “GC-MS of borneol after alkaline phosphatase dephosphorylation” value was “we identified AvTPS3 as bornyl diphosphate synthase (AvBPPS) according to its most abundant product”.

Regarding `CC(C)=CCC/C(C)=C/COP(=O)(O)OP(=O)(O)O` [GPP], the GC-MS product analysis entry at AvBPPS (AvTPS3) [2] was “AvTPS3 was found to catalyze GPP to produce three monoterpene compounds”.

B1: AvPS (AvTPS1) (Wurfbainia villosa) (protein)
chain: AAEESQSLSSTTSRRSGNYQPSIWTHDRIQSLTLSHAAADEEDHAEEIKLLKYQTSKLMEEKKGRVEEQLQLIDHLQQLGVAYHFKDEIKDTLRGFHASFEDVSLQLRDNLHASALLFRLLRENGFSVSEDIFKKFKDEKAGQFEDRLQSQAEGLLSLYEASYLEKDGEELLHEAREFTTKHLKNLLEEEGSLKPGLIREQVAHALELPLNWRFQRLHTKWFIGAWQRDPAMDPALLGLAKLDFNALQNIYKRELKEASRWWTDLGLPQKLPFFRDRLTENYLWTVGWAFEPDSWAFRELQTKINCFITLIDDVYDVYGTLDELELFTDIMERWDVNSIDKLPEYMKICFLAVFNTVNDAGYEVIRDKGVDIIPYLKRAWAELCKMYMREARWYHAGYTPTLDEYLDGAWISISGALILSTAYCMGNDLTKDDLDKFSTYPAVMHPSCMLLRLHDDFGTSTDELARGDVQKAVQCCMHERKVPEAVAREHIMQVMEAKWRLLNGNRVATSSFEEYFLNVAINIPRSAQFFYGQGDGYGKSDGETKKQVISLLIEPVQF
notes: predicted 42-residue N-terminal transit peptide removed (full ORF 600 aa); E. coli Rosetta (DE3); Ni column
Regarding B1, in series [3], the Km stood at 1.99 µM.

Usually Km stands for the concentration of substrate that gives half-maximal velocity.

Values taken from publication PMC6020762, “An Integrative Volatile Terpenoid Profiling and Transcriptomics Analysis for Gene Mining and Functional Characterization of AvBPPS and AvPS Involved in the Monoterpenoid Biosynthesis in Amomum villosum” (Frontiers in Plant Science, 2018).
